The values that follow come from article PMC8002452, “Molecular Basis of AmpC β-Lactamase Induction by Avibactam in Pseudomonas aeruginosa: PBP Occupancy, Live Cell Binding Dynamics and Impact on Resistant Clinical Isolates Harboring PDC-X Variants” (International Journal of Molecular Sciences, 2021).

The target in one assay is T1, PBP1a (Pseudomonas aeruginosa, UniProt Q07806).
T1 construct: PBP-containing membranes were isolated by ultracentrifugation; endogenous in cells; host or cells: P. aeruginosa PAO1 wild type (membrane preparations or intact cells)
Put plainly: PBP-binding affinity (IC50), bocillin FL, isolated membranes. Also noted: species or system P. aeruginosa PAO1. To be noted: PAO1 membranes 0.5 mg/mL, 30 min, 25 µM bocillin FL; read-out: Mean IC50 ± SD, PBP 1a (converted). As for the experimental part: (§1) PBP-binding affinity was determined using previously described methods. Briefly, P. aeruginosa PAO1 cultures grown to the midexponential phase (7.6 log10 CFU/mL) were incubated in CAMHB at 37 °C and 180 rpm, washed and centrifuged (3220× g for 10 min at 4 °C). Bacterial pellets were washed in 30 mL of PBS buffer (pH 7.5), resuspended in 10 mL of PBS and sonicated at 40% amplitude for three 2 min bursts (while immersed in an ice bath) and centrifuged at 3220× g for 15 min at 4 °C. PBP-containing membranes were isolated by ultracentrifugation at 150,000× g for 30 min at 4 °C. Total protein concentrations were measured through the Bradford method.
(§2) Subsequently, the fluorescent penicillin bocillin FL was added to a 25 μM final concentration. Labeled PBPs were denatured and separated through 4–15% SDS–polyacrylamide gel electrophoresis. Labeled PBPs were visualized using a Typhoon FLA 9500 biomolecular imager (GE Healthcare Bio-Sciences AB, Uppsala, Sweden) (excitation at 488 nm and emission at 530 nm), and binding was determined from at least three independent experiments using ImageQuant TL software v8.1.0.0 (GE Healthcare Bio-Sciences AB, Uppsala, Sweden).

The target in a further assay is T2, PBP2 (Pseudomonas aeruginosa, UniProt Q9X6V3).
T2 construct: PBP-containing membranes were isolated by ultracentrifugation; endogenous in cells; host or cells: P. aeruginosa PAO1 wild type (membrane preparations or intact cells)
The assay is described as above. Also noted: species or system P. aeruginosa PAO1. Conditions: PAO1 membranes 0.5 mg/mL, 30 min, 25 µM bocillin FL; read-out: Mean IC50 ± SD, PBP 2 (converted). How it is done: as §1, §2

Another assay has as its target PBP5/6 (Pseudomonas aeruginosa, UniProt G3XD74). The assay is described as above. Conditions: PAO1 membranes 0.5 mg/mL, 30 min, 25 µM bocillin FL; read-out: Mean IC50 ± SD, PBP 5/6 (converted). Also noted: species or system P. aeruginosa PAO1. As for the experimental part:
as §1, §2

The next assay deals with PBP1b (Pseudomonas aeruginosa, UniProt G3XD31). Described as above. Also on record: species or system P. aeruginosa PAO1. Conditions: PAO1 membranes 0.5 mg/mL, 30 min, 25 µM bocillin FL. How it is done: as §1, §2
The next assay concerns the target PBP4 (Pseudomonas aeruginosa, UniProt Q9HZG1). The description is as above. Also on record: species or system P. aeruginosa PAO1. Conditions: PAO1 membranes 0.5 mg/mL, 30 min, 25 µM bocillin FL; read-out: Mean IC50 ± SD, PBP 4 (converted). As for the experimental part: as §1, §2
A further assay has as its target T3, PBP3 (Pseudomonas aeruginosa, UniProt G3XD46).
T3 construct: PBP-containing membranes were isolated by ultracentrifugation; endogenous in cells; host or cells: P. aeruginosa PAO1 wild type (membrane preparations or intact cells)
Put plainly: biochemical. The assay is classed as binding, P. aeruginosa PAO1. To be noted: PAO1 membranes 0.5 mg/mL, 30 min, 25 µM bocillin FL; read-out: Mean IC50 ± SD, PBP 3 (converted). As for the experimental part: as §1, §2

The subject of assay [1] is ampC mRNA in 101-E5 (CAZ/AVI-sensitive ST175 clinical isolate). Put plainly: qRT-PCR quantification of AmpC induction. The assay is classed as cell-based, P. aeruginosa. To be noted: IPM 8, FOX 64, AVI 16 µg/mL, relative to strain basal t=0. As for the experimental part:
(§3) Samples were taken at 0, 30 and 180 min. Total RNA was extracted with the RNeasy Mini Kit (Qiagen, Hilden, Germany) and treated with TURBO DNase (Thermo Fisher Scientific, Waltham, MA, USA) to remove contaminating DNA. Samples were afterwards normalized to 50 ng/µL.
(§4) Normalized samples were then used for one-step reverse transcription and real-time PCR amplification using the QuantiTect SYBR green qRT-PCR kit (Qiagen, Hilden, Germany) in a CFX Connect Real-Time PCR System (Bio-Rad, Hercules, California, USA). Previously described primer pairs ACrnaF/ACrnaR and rpsL-1/rpsL-2 were used for the amplification of ampC and housekeeping gene rpsL, respectively. The mean values of relative mRNA expression (2^−ΔΔCt) obtained from at least two independent biological replicates and duplicate technical replicates were considered.
(In qPCR the cycle at which signal appears reflects the starting amount.)

Assay [2] relates to ampC mRNA in 103-H8 (AmpC E247K; PDC-221, CAZ/AVI-resistant ST175 clinical isolate). In words: qRT-PCR quantification of AmpC induction. The assay is classed as cell-based, P. aeruginosa. To be noted: IPM 8, FOX 64, AVI 16 µg/mL, relative to strain basal t=0. As for the experimental part: as §3, §4
Assay [3] has as its system ampC mRNA in 109-E9 (CAZ/AVI-sensitive ST175 clinical isolate). Put plainly: qRT-PCR quantification of AmpC induction. It counts as cell-based, P. aeruginosa. To be noted: IPM 8, FOX 64, AVI 16 µg/mL, relative to strain basal t=0. As for the experimental part:
as §3, §4

Assay [4] has as its system ampC mRNA in 110-G8 (AmpC DelG229–E247; PDC-223, CAZ/AVI-resistant ST175 clinical isolate). In words: qRT-PCR quantification of AmpC induction. The assay is classed as cell-based, P. aeruginosa. Conditions: IPM 8, FOX 64, AVI 16 µg/mL, relative to strain basal t=0. As for the experimental part: as §3, §4
Assay [5] has as its system ampC mRNA in PAΔdacB (PBP4 knockout mutant). In words: qRT-PCR quantification of AmpC induction. The assay is classed as cell-based, P. aeruginosa. To be noted: 180 min; IPM 8, FOX 64 µg/mL. As for the experimental part: as §3, §4
The subject of assay [6] is ampC mRNA in wild-type PAO1. Put plainly: qRT-PCR quantification of AmpC induction. The assay is classed as cell-based, P. aeruginosa. Conditions: IPM 8, FOX 64, AVI 16 µg/mL, relative to strain basal t=0. How it is done: as §3, §4

PBP5/6, sequence (G3XD74 entry or part of it): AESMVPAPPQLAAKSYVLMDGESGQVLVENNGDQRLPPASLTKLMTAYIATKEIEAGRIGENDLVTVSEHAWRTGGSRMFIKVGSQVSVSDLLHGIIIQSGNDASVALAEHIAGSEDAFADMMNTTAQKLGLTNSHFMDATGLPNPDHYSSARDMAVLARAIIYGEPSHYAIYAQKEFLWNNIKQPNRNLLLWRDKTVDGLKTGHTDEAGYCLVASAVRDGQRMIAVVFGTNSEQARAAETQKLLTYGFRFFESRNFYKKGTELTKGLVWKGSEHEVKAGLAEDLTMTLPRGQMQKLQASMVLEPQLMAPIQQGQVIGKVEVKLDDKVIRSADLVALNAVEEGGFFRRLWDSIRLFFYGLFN
PBP1b, sequence (G3XD31 entry or part of it): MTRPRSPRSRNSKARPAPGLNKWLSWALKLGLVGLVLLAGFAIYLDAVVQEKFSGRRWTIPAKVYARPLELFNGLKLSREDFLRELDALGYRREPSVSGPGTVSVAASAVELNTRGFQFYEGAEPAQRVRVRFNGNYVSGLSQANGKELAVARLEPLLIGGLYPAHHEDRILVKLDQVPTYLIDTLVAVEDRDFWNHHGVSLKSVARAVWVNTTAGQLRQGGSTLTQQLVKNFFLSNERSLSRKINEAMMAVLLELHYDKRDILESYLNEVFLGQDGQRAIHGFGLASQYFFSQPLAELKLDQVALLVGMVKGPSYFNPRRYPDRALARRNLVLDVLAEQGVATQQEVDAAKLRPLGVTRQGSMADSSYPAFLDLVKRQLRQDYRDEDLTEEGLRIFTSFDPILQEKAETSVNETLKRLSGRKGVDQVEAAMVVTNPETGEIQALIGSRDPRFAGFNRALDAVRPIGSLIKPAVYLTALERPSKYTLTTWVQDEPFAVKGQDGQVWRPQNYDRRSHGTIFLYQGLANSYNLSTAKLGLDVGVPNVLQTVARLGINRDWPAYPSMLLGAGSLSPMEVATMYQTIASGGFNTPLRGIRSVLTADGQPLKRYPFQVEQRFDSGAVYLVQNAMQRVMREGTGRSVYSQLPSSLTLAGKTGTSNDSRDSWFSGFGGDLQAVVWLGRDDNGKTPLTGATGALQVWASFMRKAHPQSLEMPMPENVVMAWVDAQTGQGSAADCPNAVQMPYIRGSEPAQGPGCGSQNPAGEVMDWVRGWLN
T2 sequence (Q9X6V3 entry or part of it): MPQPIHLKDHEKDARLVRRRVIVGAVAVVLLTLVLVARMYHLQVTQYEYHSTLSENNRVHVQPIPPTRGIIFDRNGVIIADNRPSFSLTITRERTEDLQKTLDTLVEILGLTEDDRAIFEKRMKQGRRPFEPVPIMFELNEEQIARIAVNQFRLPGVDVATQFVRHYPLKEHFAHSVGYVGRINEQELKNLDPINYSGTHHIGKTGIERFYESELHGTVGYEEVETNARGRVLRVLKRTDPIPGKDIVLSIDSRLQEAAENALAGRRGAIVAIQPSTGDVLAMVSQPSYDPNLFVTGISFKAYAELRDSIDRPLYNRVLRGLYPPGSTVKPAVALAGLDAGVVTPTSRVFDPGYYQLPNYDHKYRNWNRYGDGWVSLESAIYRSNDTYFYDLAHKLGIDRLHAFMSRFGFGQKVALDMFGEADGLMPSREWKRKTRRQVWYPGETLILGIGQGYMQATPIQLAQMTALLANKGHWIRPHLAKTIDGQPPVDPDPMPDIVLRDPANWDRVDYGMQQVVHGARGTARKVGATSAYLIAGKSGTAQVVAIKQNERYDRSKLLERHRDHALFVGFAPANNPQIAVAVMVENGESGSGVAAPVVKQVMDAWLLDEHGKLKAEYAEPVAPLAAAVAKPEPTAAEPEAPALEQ
T1 sequence (Q07806 whole entry): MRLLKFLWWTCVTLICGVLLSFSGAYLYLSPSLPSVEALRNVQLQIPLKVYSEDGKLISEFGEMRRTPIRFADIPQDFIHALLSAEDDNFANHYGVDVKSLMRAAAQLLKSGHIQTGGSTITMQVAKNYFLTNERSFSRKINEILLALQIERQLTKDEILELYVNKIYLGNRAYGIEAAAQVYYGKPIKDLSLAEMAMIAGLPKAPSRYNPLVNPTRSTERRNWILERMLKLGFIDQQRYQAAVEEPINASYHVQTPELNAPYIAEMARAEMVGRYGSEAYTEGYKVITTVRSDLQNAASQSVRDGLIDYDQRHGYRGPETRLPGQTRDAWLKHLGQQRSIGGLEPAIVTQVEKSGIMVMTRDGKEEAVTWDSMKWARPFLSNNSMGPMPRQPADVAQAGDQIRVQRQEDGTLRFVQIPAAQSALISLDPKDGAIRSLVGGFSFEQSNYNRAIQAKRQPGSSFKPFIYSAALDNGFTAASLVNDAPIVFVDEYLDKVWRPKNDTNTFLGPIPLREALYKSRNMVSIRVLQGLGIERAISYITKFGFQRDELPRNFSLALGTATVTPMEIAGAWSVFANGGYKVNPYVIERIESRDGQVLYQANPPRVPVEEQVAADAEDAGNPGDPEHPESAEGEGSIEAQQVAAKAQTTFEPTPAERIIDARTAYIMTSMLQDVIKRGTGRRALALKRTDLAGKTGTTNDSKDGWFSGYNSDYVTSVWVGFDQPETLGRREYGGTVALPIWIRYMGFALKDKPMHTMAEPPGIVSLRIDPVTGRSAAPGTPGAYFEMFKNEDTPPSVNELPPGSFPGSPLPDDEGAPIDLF
T3 sequence (G3XD46 whole entry): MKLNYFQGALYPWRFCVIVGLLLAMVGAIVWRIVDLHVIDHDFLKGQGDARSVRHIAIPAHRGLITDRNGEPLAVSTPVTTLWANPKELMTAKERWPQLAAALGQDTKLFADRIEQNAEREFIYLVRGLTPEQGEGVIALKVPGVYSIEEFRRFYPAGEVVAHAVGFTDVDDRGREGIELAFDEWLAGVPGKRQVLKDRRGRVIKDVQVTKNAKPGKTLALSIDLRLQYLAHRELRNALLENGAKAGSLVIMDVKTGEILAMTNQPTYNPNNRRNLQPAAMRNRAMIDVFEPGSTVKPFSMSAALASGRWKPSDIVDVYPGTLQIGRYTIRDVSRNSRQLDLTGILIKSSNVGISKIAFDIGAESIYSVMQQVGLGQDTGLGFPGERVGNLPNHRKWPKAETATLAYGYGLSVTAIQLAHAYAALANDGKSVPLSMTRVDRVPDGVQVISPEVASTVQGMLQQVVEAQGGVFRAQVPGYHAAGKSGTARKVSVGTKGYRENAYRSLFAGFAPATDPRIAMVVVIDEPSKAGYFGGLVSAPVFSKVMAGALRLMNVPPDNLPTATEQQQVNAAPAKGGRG
PBP4, sequence (Q9HZG1 entry or part of it): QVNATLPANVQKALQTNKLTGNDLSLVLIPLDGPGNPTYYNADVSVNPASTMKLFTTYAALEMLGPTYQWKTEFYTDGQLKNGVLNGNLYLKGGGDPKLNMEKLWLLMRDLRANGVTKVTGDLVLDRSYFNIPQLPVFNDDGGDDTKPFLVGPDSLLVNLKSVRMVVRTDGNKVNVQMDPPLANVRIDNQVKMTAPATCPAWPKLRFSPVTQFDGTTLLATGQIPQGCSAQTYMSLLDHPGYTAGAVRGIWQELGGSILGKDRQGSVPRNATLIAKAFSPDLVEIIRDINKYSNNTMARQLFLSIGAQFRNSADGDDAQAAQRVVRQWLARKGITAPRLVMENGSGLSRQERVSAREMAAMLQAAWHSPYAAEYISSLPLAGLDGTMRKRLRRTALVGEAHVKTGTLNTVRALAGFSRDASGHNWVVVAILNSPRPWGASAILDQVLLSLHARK

Regarding `C[C@@H](O)[C@H]1C(=O)N2C(C(=O)O)=C(SCCN=CN)C[C@H]12` [Imipenem], the IC50 on PBP1a was below 0.835 µM; on PBP2, below 0.835 µM; at PBP5/6 it was 1.67 µM.
`CO[C@@]1(NC(=O)Cc2cccs2)C(=O)N2C(C(=O)O)=C(COC(N)=O)CS[C@@H]21` [Cefoxitin]: the IC50 on PBP1a is 18.2 µM; on PBP1b (read-out: Mean IC50 ± SD, PBP 1b (converted)), above 74.9 µM; on PBP2, 34.2 µM; on PBP4, 3.51 µM; at PBP5/6 it was 21.1 µM; on PBP3, 25 µM. On PBP1b, the “Mean IC50 ± SD, PBP 1b” value is “no PBP1b binding was detected”. The “Relative ampC expression” value came to 3.7 in assay [1] (101-E5, 0 min); 1.7 in assay [1] (101-E5, 30 min); 5.7 ± 2.8 in assay [1] (101-E5, 180 min); 5.7 in assay [1] (101-E5, 180 min, listed as FOX); 1.4 in assay [2] (103-H8, 0 min); 14.0 in assay [2] (103-H8, 30 min). For the same molecule, the “Relative ampC expression” value was 50 ± 36.5 in [2] (103-H8, 180 min); 50.0 in assay [2] (103-H8, 180 min, listed as FOX); 0.9 in [3] (109-E9, 0 min); 4.1 in [3] (109-E9, 30 min); 8.8 ± 7.9 in assay [3] (109-E9, 180 min); 8.8 in [3] (109-E9, 180 min, listed as FOX). The “Relative ampC expression” value in assay [4] (110-G8, 0 min) was 3.3; in assay [4] (110-G8, 30 min), 51.8 ± 13.2; in [4] (110-G8, 30 min, listed as FOX), 51.8; in assay [4] (110-G8, 180 min), 29.2 ± 13.1; in [4] (110-G8, 180 min, listed as FOX), 29.2; in [6] (PAO1, 0 min), 0.9. The “Relative ampC expression” value in [6] (PAO1, 30 min) was 3100; in assay [6] (PAO1, 180 min), 2500. Besides, the “ampC inducibility of PBP4 (dacB) mutant, fold lower than parental strain PAO1” value in assay [5] worked out at 32 fold.
